Measurements taken from ChEMBL document CHEMBL1201862, “PubChem BioAssay data set” (2004).
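A five-concentration, 48-hour dose response in 96-well plates underlies each endpoint, interpolated linearly between surrounding concentrations. GI50 = concentration required for 50% inhibition of growth.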 Active and inactive are the calls of the source. Rule as the data show it: active = GI50 up to about 1.1 µM and inactive = higher.

Key:
Assay in all cases: inhibition of tumour cell growth, NCI panel, 48 h
A549 = system: A549
ACHN = system: ACHN
CAKI-1 = system: CAKI-1
CCRF-CEM = system: CCRF-CEM
COLO 205 = system: COLO 205
DLD-1 = system: DLD-1
DMS-114 = system: DMS-114
DMS-273 = system: DMS-273
EKVX = system: EKVX
HCC 2998 = system: HCC 2998
HCT-116 = system: HCT-116
HCT-15 = system: HCT-15
HL-60 = system: HL-60
HOP-62 = system: HOP-62
HOP-92 = system: HOP-92
HT-29 = system: HT-29
IGROV-1 = system: IGROV-1
K562 = system: K562
KM-20L2 = system: KM-20L2
KM12 = system: KM12
LXFL 529 = system: LXFL 529
M14 = system: M14
M19-MEL = system: M19-MEL
MOLT-4 = system: MOLT-4
Malme-3M = system: Malme-3M
NCI-H226 = system: NCI-H226
NCI-H23 = system: NCI-H23
NCI-H460 = system: NCI-H460
NCI-H522 = system: NCI-H522
OVCAR-3 = system: OVCAR-3
OVCAR-4 = system: OVCAR-4
OVCAR-5 = system: OVCAR-5
OVCAR-8 = system: OVCAR-8
RPMI-8226 = system: RPMI-8226
RXF 393 = system: RXF 393
SF-268 = system: SF-268
SF-295 = system: SF-295
SF-539 = system: SF-539
SK-MEL-28 = system: SK-MEL-28
SK-MEL-2 = system: SK-MEL-2
SK-MEL-5 = system: SK-MEL-5
SK-OV-3 = system: SK-OV-3
SN12C = system: SN12C
SNB-19 = system: SNB-19
SNB-75 = system: SNB-75
SNB-78 = system: SNB-78
SR = system: SR
SW-620 = system: SW-620
TK-10 = system: TK-10
U-251 = system: U-251
UACC-257 = system: UACC-257
UACC-62 = system: UACC-62
UO-31 = system: UO-31
XF498 = system: XF498

Measured: GI50

Cc1cc2c(ccc[n+]2[O-])[n+]([O-])c1
> 100 µM: HCT-15
inactive: A549 > 100 µM | ACHN > 100 µM | CAKI-1 > 100 µM | CCRF-CEM > 100 µM | COLO 205 > 100 µM | DLD-1 > 100 µM | DMS-114 > 100 µM | DMS-273 > 100 µM | EKVX > 100 µM | HCC 2998 > 100 µM | HCT-116 > 100 µM | HL-60 > 100 µM | HOP-62 > 100 µM | HOP-92 > 100 µM | HT-29 > 100 µM | IGROV-1 > 100 µM | K562 > 100 µM | KM-20L2 > 100 µM | KM12 > 100 µM | LXFL 529 > 100 µM | M14 > 100 µM | M19-MEL > 100 µM | MOLT-4 > 100 µM | Malme-3M > 100 µM | NCI-H226 > 100 µM | NCI-H23 > 100 µM | NCI-H460 > 100 µM | NCI-H522 > 100 µM | OVCAR-3 > 100 µM | OVCAR-4 > 100 µM | OVCAR-5 > 100 µM | OVCAR-8 > 100 µM | RPMI-8226 > 100 µM | RXF 393 4.74 µM | SF-268 > 100 µM | SF-295 > 100 µM | SF-539 > 100 µM | SK-MEL-28 > 100 µM | SK-MEL-2 > 100 µM | SK-MEL-5 > 100 µM | SK-OV-3 > 100 µM | SN12C > 100 µM | SNB-19 > 100 µM | SNB-75 > 100 µM | SNB-78 > 100 µM | SR > 100 µM | SW-620 > 100 µM | TK-10 > 100 µM | U-251 > 100 µM | UACC-257 > 100 µM | UACC-62 > 100 µM | UO-31 > 100 µM | XF498 > 100 µM
